In patent publication US6124269A, “2-Halo-6-O-substituted ketolide derivatives” (priority 1998, dated 2000):
Converted amounts (≈) assume the structure as drawn.

Tests used:
Assay type in all cases: cell-based
[1] = tested on: Haemophilis influenzae DILL AMP R; experiment: In vitro agar dilution MIC, organism code WW; conditions: unit assumed
How it was run: (§1)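 Plates are incubated for 20 to 24 hours at 35-37° C after replicator inoculation onto BHI agar containing successive compound dilutions. Slow-growing strains such as Streptococcus get a 1:10 inoculum, others 1:100. The endpoint counts slight haze or sparsely isolated colonies as inhibition.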

[2] = tested on: Streptococcus pyogenes PIU 2548; experiment: In vitro agar dilution MIC, organism code NN; conditions: unit assumed
How it was run: as §1

[3] = tested on: Staphylococcus aureus A-5278; experiment: In vitro agar dilution MIC, organism code CC; conditions: Table 1B, unit assumed
How it was run: as §1

[4] = tested on: Staphylococcus aureus ATCC 6538P; experiment: In vitro agar dilution MIC, organism code AA; conditions: Table 1B, unit assumed
How it was run: as §1

[5] = tested on: Streptococcus pyogenes 930; experiment: In vitro agar dilution MIC, organism code MM; conditions: unit assumed
How it was run: as §1

[6] = tested on: Nocardia asteroides ATCC 9970; experiment: In vitro agar dilution MIC, organism code VV; conditions: Table 1B, in µg/mL (unit assumed)
How it was run: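 Agar plates of BHI carried graded compound concentrations and were inoculated with bacterial suspensions diluted 1:100, or 1:10 for slow-growing streptococci. After 20 to 24 hours of incubation at 35-37° C, the minimum inhibitory concentration was scored visually against a compound-free plate.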

[7] = tested on: Micrococcus luteus ATCC 4698; experiment: In vitro agar dilution MIC, organism code PP; conditions: Table 1B, in µg/mL (unit assumed)
How it was run: as §1

[8] = tested on: Streptococcus agalactiae CMX 508; experiment: In vitro agar dilution MIC, organism code KK; conditions: Table 1B, unit assumed
How it was run: as §1

[9] = tested on: Micrococcus luteus ATCC 9341; experiment: In vitro agar dilution MIC, organism code OO; conditions: Table 1B, unit assumed
How it was run: as §1

Candida albicans CCH 442 = experiment: In vitro agar dilution MIC, organism code TT; conditions: Table 1B, unit assumed
How it was run: as §1

[10] = tested on: Streptococcus pyogenes EES61; experiment: In vitro agar dilution MIC, organism code LL; conditions: unit assumed
How it was run: as §1

[11] = tested on: Streptococcus pneumoniae GYR 1171; experiment: In vitro agar dilution MIC, organism code YY; conditions: Table 1B, unit assumed
How it was run: as §1

Escherichia coli SS = experiment: In vitro agar dilution MIC, organism code RR; conditions: Table 1B, in µg/mL (unit assumed)
How it was run: as §1

[12] = tested on: Staphylococcus aureus NCTC10649M; experiment: In vitro agar dilution MIC, organism code EE; conditions: Table 1B, unit assumed
How it was run: as §1

[13] = tested on: Streptococcus bovis A-5169; experiment: In vitro agar dilution MIC, organism code JJ; conditions: Table 1B, unit assumed
How it was run: as §1

[14] = tested on: Enterococcus faecium ATCC 8043; experiment: In vitro agar dilution MIC, organism code II; conditions: Table 1B, unit assumed
How it was run: as §1

Escherichia coli DC-2 = experiment: In vitro agar dilution MIC, organism code SS; conditions: Table 1B, unit assumed
How it was run: as §1

[15] = tested on: Streptococcus pneumoniae ATCC 6303; experiment: In vitro agar dilution MIC, organism code XX; conditions: unit assumed
How it was run: as §1

[16] = tested on: Staphylococcus aureus CMX 553; experiment: In vitro agar dilution MIC, organism code FF; conditions: Table 1B, unit assumed
How it was run: as §1

[17] = tested on: Streptococcus pneumoniae 5649; experiment: In vitro agar dilution MIC, organism code ZZA; conditions: unit assumed
How it was run: as §1

[18] = tested on: Mycobacterium smegmatis ATCC 114; experiment: In vitro agar dilution MIC, organism code UU; conditions: Table 1B, in µg/mL (unit assumed)
How it was run: as §1

[19] = tested on: Staphylococcus aureus CMX 642A; experiment: In vitro agar dilution MIC, organism code DD; conditions: Table 1B, unit assumed
How it was run: as §1

[20] = tested on: Staphylococcus aureus A5177; experiment: In vitro agar dilution MIC, organism code BB; conditions: Table 1B, in µg/mL (unit assumed)
How it was run: as §1

Escherichia coli JUHL = experiment: In vitro agar dilution MIC, organism code QQ; conditions: Table 1B, in µg/mL (unit assumed)
How it was run: as §1

[21] = tested on: Staphylococcus epidermidis 3519; experiment: In vitro agar dilution MIC, organism code HH; conditions: Table 1B, in µg/mL (unit assumed)
How it was run: as §1

[22] = tested on: Streptococcus pneumoniae 5979; experiment: In vitro agar dilution MIC, organism code ZZ; conditions: unit assumed
How it was run: as §1

[23] = tested on: Staphylococcus aureus 1775; experiment: In vitro agar dilution MIC, organism code GG; conditions: Table 1B, unit assumed
How it was run: as §1

Row | Compound | MIC ([1]; Table 1B) [mg/L] | MIC ([2]; Table 1B) [mg/L] | MIC [3] [mg/L] | MIC [4] [mg/L] | MIC ([5]; Table 1B) [mg/L] | MIC [6] | MIC [7] | MIC [8] [mg/L] | MIC [9] [mg/L] | MIC (Candida albicans CCH 442) [mg/L] | MIC ([10]; Table 1B) [mg/L] | MIC [11] [mg/L] | MIC (Escherichia coli SS) | MIC [12] [mg/L] | MIC [13] [mg/L] | MIC [14] [mg/L] | MIC (Escherichia coli DC-2) [mg/L] | MIC ([15]; Table 1B) [mg/L] | MIC [16] [mg/L] | MIC ([17]; Table 1B) [mg/L] | also measured
1 | CC[C@H]1OC(=O)[C@@](C)(F)C(=O)[C@H](C)[C@@H](O[C@@H]2O[C@H](C)C[C@H](N(C)C)[C@H]2O)[C@](C)(OC/C=C/c2cnc3ccccc3c2)C[C@@H](C)C(=O)[C@H](C)[C@H]2NC(=O)O[C@@]21C [Example 5] | 1 (≈ 1.28 µM) | 0.05 (≈ 0.0638 µM) | > 100 | 0.05 (≈ 0.0638 µM) | 0.2 (≈ 0.255 µM) | 0.005 | 0.1 | 0.01 (≈ 0.0128 µM) | 0.01 (≈ 0.0128 µM) | 12.5 (≈ 15.9 µM) | 0.01 (≈ 0.0128 µM) | 0.03 (≈ 0.0383 µM) | 0.2 | 0.05 (≈ 0.0638 µM) | 0.005 (≈ 0.00638 µM) | 0.02 (≈ 0.0255 µM) | 25 (≈ 31.9 µM) | 0.03 (≈ 0.0383 µM) | 0.05 (≈ 0.0638 µM) | 0.25 (≈ 0.319 µM) | MIC ([1]; Table 1D): 1 mg/L (≈ 1.28 µM); MIC ([2]; Table 1D): 0.25 mg/L (≈ 0.319 µM); MIC ([5]; Table 1D): 0.25 mg/L (≈ 0.319 µM); MIC ([10]; Table 1D): 0.03 mg/L (≈ 0.0383 µM); MIC ([15]; Table 1D): 0.03 mg/L (≈ 0.0383 µM); MIC ([17]; Table 1D): 0.25 mg/L (≈ 0.319 µM); MIC [18]: 0.2; MIC [19]: 0.05 mg/L (≈ 0.0638 µM); MIC [20]: 0.05; MIC (Escherichia coli JUHL): 25; MIC [21]: 0.05; MIC ([22]; Table 1B): 1 mg/L (≈ 1.28 µM); MIC ([22]; Table 1D): 1 mg/L (≈ 1.28 µM); MIC [23]: > 100 mg/L
2 | CC[C@H]1OC(=O)[C@@](C)(F)C(=O)[C@H](C)[C@@H](O[C@@H]2O[C@H](C)C[C@H](N(C)C)[C@H]2O)[C@](C)(OC/C=C/c2ccc3ncccc3c2)C[C@@H](C)C(=O)[C@H](C)[C@H]2NC(=O)O[C@@]21C [Example 10] | 2 (≈ 2.55 µM) | 0.1 (≈ 0.128 µM) | > 100 | 0.1 (≈ 0.128 µM) | 0.39 (≈ 0.497 µM) | 0.01 | 0.1 | 0.05 (≈ 0.0638 µM) | 0.02 (≈ 0.0255 µM) | > 100 | 0.02 (≈ 0.0255 µM) | 0.015 (≈ 0.0191 µM) | 0.1 | 0.1 (≈ 0.128 µM) | 0.01 (≈ 0.0128 µM) | 0.05 (≈ 0.0638 µM) | 100 (≈ 128 µM) | 0.015 (≈ 0.0191 µM) | 0.1 (≈ 0.128 µM) | 0.25 (≈ 0.319 µM) | MIC [18]: 0.1; MIC [19]: 0.1 mg/L (≈ 0.128 µM); MIC [20]: 0.1; MIC (Escherichia coli JUHL): 100; MIC [21]: 0.2; MIC ([22]; Table 1B): 0.25 mg/L (≈ 0.319 µM); MIC [23]: > 100 mg/L
3 | CC[C@H]1OC(=O)C(C)(F)C(=O)[C@H](C)[C@@H](O[C@@H]2O[C@H](C)C[C@H](N(C)C)[C@H]2O)[C@](C)(OCC#CC(=O)c2ccc(Cl)nc2)C[C@@H](C)C(=O)[C@H](C)[C@H]2NC(=O)O[C@@]21C (stereo partly shown) [Example 25] | 2 (≈ 2.52 µM) | 0.39 (≈ 0.491 µM) | > 100 | 0.39 (≈ 0.491 µM) | 6.2 (≈ 7.81 µM) | 0.2 | 0.39 | 0.1 (≈ 0.126 µM) | 0.2 (≈ 0.252 µM) | > 100 | 0.1 (≈ 0.126 µM) | ≤ 0.004 | 3.1 | 0.78 (≈ 0.982 µM) | 0.1 (≈ 0.126 µM) | 0.2 (≈ 0.252 µM) | > 100 | ≤ 0.004 | 0.39 (≈ 0.491 µM) | 0.06 (≈ 0.0755 µM) | MIC [18]: 0.78; MIC [19]: 0.39 mg/L (≈ 0.491 µM); MIC [20]: 0.39; MIC (Escherichia coli JUHL): > 100; MIC [21]: 0.39; MIC ([22]; Table 1B): 0.06 mg/L (≈ 0.0755 µM); MIC [23]: > 100 mg/L
4 | CC[C@H]1OC(=O)[C@@](C)(F)C(=O)[C@H](C)[C@@H](O[C@@H]2O[C@H](C)C[C@H](N(C)C)[C@H]2O)[C@](C)(OC/C=C/c2cnc3ncccc3c2)C[C@@H](C)C(=O)[C@H](C)[C@H]2NC(=O)O[C@@]21C [Example 11] | 2 (≈ 2.55 µM) | 0.01 (≈ 0.0127 µM) | > 100 | 0.05 (≈ 0.0637 µM) | 0.1 (≈ 0.127 µM) | 0.01 | 0.05 | 0.01 (≈ 0.0127 µM) | 0.01 (≈ 0.0127 µM) | > 100 | 0.39 (≈ 0.497 µM) | ≤ 0.004 | 0.2 | 0.05 (≈ 0.0637 µM) | 0.01 (≈ 0.0127 µM) | 0.05 (≈ 0.0637 µM) | 12.5 (≈ 15.9 µM) | ≤ 0.004 | 0.05 (≈ 0.0637 µM) | 0.25 (≈ 0.319 µM) | MIC [18]: 0.78; MIC [19]: 0.05 mg/L (≈ 0.0637 µM); MIC [20]: 0.05; MIC (Escherichia coli JUHL): 25; MIC [21]: 0.05; MIC ([22]; Table 1B): 0.125 mg/L (≈ 0.159 µM); MIC [23]: 100 mg/L (≈ 127 µM)
